In ChEMBL document CHEMBL3045789, “Tetracyclic spirooxindole blockers of hNaV1.7: activity in vitro and in CFA-induced inflammatory pain model” (Med Chem Res, 2013):
Converted amounts (≈) assume the structure as drawn. The source made the active and inactive calls. The rule behind the calls is not given here.

Columns and labels:
[1] = Solubility of the compound in phosphate buffered saline at pH 7.4; format: physicochemical
CYP3A4 = CYP3A4 (Homo sapiens, UniProt P08684); experiment: Inhibition of Homo sapiens (human) recombinant CYP3A4 at 10 uM by fluorogenic assay; format: ADME
[2] = molecular target: Sodium channel protein type 9 subunit alpha (Homo sapiens, UniProt Q15858); experiment: Inhibition of Homo sapiens (human) NaV1.7 expressed in HEK293 cells assessed as decrease in [14C]guanidinium influx after 2 hr by liquid scintillation counting analysis; format: cell-based
[3] = Metabolic stability in Rattus norvegicus (rat) liver microsomes assessed as compound remaining after 30 min; format: ADME; conditions: read-out: Stability
Rattus norvegicus [4] = experiment: Analgesic activity in CFA-induced Rattus norvegicus (rat) inflammatory pain model assessed as reduction of mechanical allodynia at 10 mg/kg, ip after 1 hr by von Frey test; format: functional, organism-based; parameters: dose 10 mg/kg
Rattus norvegicus [5] = experiment: Analgesic activity in CFA-induced Rattus norvegicus (rat) inflammatory pain model assessed as reduction of mechanical allodynia at 40 mg/kg, po after 1 hr by von Frey test; format: functional, organism-based; parameters: dose 40 mg/kg
Cytochrome P450 3A4 = Cytochrome P450 3A4 (Homo sapiens, UniProt P08684); experiment: Inhibition of Homo sapiens (human) recombinant CYP3A4 by fluorogenic assay; format: ADME
Rattus norvegicus [6] = experiment: Analgesic activity in CFA-induced Rattus norvegicus (rat) inflammatory pain model assessed as reduction of mechanical allodynia at 10 mg/kg, po after 1 hr by von Frey test relative to vehicle-treated control; format: functional; parameters: scale not given: the % may be the effect or the level left
[7] = Cytotoxicity against Homo sapiens (human) HepG2 cells assessed as cell viability after 16 hr; format: cell-based; conditions: read-out: Activity
[8] = Metabolic stability in Rattus norvegicus (rat) hepatocytes assessed as compound remaining after 2 hr; format: ADME, cell-based, Hepatocyte; conditions: read-out: Stability
hERG (KCNH2) = hERG (KCNH2) (Homo sapiens, UniProt Q12809); experiment: Inhibition of Homo sapiens (human) ERG expressed in HEK293 cells at 10 uM after 3 hr by rubidium efflux assay; format: cell-based; conditions: HEK293 cells expressing human ERG
[9] = Cmax in Sprague-Dawley Rattus norvegicus (rat) at 1 mg/kg, iv; format: ADME, organism-based; parameters: dose 1 mg/kg, route intravenous; conditions: in vivo
[10] = Oral bioavailability in Sprague-Dawley Rattus norvegicus (rat) at 10 mg/kg; format: ADME, organism-based; conditions: in vivo
[11] = Cmax in Sprague-Dawley Rattus norvegicus (rat) at 10 mg/kg, po; format: ADME, organism-based; parameters: dose 10 mg/kg, route oral; conditions: in vivo
[12] = AUClast in Sprague-Dawley Rattus norvegicus (rat) at 1 mg/kg, iv; format: ADME, organism-based; parameters: time 0 - last, dose 1 mg/kg, route intravenous; conditions: plasma
[13] = Metabolic stability in Canis lupus familiaris (dog) hepatocytes assessed as compound remaining after 2 hr; format: ADME, cell-based, Hepatocyte; conditions: read-out: Stability
[14] = Terminal half life in Sprague-Dawley Rattus norvegicus (rat) at 1 mg/kg, iv; format: ADME, organism-based; parameters: dose 1 mg/kg, route intravenous; conditions: in vivo, read-out: beta t1/2 (converted)
[15] = Plasma protein binding in Rattus norvegicus (rat); format: ADME, cell-free; conditions: read-out: PPB (converted)
[16] = AUClast in Sprague-Dawley Rattus norvegicus (rat) at 10 mg/kg, po; format: ADME, organism-based; parameters: time 0 - last, dose 10 mg/kg, route oral; conditions: plasma
[17] = Metabolic stability in Homo sapiens (human) hepatocytes assessed as compound remaining after 2 hr; format: ADME, cell-based, Hepatocyte; conditions: read-out: Stability
[18] = Tmax in Sprague-Dawley Rattus norvegicus (rat) at 10 mg/kg, po; format: ADME, organism-based; parameters: dose 10 mg/kg, route oral; conditions: in vivo
[19] = Volume of distribution at steady state in Sprague-Dawley Rattus norvegicus (rat) at 1 mg/kg, iv; format: ADME, organism-based; parameters: dose 1 mg/kg, route intravenous; conditions: in vivo, read-out: Vdss
[20] = Apparent permeability across apical to basolateral side in Homo sapiens (human) Caco2 cells; format: ADME, cell-based; conditions: Caco-2
[21] = Clearance in Sprague-Dawley Rattus norvegicus (rat) at 1 mg/kg, iv; format: ADME, organism-based; parameters: dose 1 mg/kg, route intravenous; conditions: in vivo
[22] = Apparent permeability across basolateral to apical side in Homo sapiens (human) Caco2 cells; format: ADME, cell-based; conditions: Caco-2

Chain of CYP3A4 (P08684 whole entry): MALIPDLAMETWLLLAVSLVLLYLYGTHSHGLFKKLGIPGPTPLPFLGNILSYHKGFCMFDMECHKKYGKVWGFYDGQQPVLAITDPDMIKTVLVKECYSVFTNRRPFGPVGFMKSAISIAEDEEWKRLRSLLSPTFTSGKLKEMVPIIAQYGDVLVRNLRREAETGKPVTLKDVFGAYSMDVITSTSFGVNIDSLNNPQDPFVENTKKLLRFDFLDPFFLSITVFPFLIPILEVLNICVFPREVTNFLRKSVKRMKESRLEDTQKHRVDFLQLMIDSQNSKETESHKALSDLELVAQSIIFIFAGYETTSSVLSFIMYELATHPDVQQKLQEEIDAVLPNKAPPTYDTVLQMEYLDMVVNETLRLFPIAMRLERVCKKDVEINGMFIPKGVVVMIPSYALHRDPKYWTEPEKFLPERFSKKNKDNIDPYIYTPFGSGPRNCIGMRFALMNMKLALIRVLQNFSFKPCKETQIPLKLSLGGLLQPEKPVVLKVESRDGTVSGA
Chain of Sodium channel protein type 9 subunit alpha (Q15858 whole entry): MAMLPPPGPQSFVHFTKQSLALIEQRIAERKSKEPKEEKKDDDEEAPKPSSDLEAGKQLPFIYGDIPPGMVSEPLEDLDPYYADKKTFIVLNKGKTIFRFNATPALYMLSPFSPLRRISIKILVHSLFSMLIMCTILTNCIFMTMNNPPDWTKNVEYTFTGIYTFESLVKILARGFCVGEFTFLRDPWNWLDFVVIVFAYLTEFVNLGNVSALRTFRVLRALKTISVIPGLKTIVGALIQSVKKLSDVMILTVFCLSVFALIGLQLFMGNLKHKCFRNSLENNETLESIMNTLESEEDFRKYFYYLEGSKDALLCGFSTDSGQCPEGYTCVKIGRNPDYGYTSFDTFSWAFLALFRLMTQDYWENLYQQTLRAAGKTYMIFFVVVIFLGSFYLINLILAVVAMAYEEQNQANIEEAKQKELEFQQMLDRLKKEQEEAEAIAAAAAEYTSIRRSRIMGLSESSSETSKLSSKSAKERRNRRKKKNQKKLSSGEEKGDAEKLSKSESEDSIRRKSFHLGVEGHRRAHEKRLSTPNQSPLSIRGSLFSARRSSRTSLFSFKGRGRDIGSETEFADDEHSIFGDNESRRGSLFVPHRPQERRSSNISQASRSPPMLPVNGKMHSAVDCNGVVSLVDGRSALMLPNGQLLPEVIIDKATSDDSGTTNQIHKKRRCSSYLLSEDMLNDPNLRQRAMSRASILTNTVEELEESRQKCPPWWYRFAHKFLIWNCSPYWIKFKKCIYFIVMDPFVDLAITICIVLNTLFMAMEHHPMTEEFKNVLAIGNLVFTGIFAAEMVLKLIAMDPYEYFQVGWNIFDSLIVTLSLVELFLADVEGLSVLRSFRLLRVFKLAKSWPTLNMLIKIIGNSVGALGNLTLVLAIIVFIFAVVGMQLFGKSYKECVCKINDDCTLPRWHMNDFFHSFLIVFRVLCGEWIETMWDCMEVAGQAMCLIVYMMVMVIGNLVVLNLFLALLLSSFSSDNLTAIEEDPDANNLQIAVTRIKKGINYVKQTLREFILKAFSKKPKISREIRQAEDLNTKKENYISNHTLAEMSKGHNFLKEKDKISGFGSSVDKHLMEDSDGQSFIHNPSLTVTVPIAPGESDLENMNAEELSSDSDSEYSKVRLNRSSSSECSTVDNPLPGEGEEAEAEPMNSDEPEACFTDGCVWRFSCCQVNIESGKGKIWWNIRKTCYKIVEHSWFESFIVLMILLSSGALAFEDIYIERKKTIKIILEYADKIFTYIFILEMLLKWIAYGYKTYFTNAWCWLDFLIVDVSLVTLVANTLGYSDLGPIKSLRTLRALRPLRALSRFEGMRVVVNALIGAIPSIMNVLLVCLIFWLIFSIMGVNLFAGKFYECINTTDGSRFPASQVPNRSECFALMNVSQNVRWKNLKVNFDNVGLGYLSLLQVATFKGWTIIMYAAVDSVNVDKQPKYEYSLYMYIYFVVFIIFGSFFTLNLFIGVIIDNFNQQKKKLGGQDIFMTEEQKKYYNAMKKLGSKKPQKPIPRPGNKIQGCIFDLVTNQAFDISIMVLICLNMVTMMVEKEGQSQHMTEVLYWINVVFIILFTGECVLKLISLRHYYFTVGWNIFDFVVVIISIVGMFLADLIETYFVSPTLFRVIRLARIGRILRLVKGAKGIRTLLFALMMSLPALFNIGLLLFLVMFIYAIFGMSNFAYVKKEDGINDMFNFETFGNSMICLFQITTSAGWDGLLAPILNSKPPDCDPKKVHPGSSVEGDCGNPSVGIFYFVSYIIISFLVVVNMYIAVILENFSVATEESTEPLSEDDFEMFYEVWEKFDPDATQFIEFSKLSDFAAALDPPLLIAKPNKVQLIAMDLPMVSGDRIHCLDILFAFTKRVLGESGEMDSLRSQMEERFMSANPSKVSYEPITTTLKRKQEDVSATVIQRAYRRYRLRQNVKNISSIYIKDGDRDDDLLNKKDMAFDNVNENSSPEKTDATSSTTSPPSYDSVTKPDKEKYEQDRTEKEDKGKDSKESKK
Chain of Cytochrome P450 3A4 (P08684 whole entry): as the sequence (P08684 whole entry) above
Chain of hERG (KCNH2) (Q12809 whole entry): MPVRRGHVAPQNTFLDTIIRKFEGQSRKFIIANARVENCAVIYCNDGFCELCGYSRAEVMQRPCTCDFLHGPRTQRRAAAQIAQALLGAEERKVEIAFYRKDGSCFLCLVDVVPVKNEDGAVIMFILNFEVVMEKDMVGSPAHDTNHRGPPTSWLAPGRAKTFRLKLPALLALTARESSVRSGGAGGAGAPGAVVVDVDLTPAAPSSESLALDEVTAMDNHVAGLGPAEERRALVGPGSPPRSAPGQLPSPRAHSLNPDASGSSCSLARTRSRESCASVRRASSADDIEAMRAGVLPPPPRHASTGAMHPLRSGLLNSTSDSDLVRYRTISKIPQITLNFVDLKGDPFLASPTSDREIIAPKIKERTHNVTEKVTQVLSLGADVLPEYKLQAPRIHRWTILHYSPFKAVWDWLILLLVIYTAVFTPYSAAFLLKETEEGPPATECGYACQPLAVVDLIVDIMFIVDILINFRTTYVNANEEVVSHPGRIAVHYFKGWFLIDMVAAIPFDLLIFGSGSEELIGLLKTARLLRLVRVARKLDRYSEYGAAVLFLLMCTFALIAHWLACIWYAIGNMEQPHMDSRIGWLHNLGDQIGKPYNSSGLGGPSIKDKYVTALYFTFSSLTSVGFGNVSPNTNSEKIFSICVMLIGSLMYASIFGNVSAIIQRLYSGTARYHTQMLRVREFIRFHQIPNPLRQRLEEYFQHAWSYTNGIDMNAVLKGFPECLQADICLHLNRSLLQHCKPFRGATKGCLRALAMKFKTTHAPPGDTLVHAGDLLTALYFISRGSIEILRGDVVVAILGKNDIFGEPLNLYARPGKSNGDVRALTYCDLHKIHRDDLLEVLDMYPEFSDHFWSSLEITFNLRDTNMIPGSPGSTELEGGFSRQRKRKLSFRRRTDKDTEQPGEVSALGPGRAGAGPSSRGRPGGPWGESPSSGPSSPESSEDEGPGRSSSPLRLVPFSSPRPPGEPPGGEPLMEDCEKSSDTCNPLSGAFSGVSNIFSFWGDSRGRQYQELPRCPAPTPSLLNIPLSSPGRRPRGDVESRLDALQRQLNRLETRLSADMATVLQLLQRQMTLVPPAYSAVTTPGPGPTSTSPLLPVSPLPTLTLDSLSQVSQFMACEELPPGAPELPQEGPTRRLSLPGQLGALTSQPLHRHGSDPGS

| SMILES | solubility [1] [µg/mL] | inhibition at 10 µM (CYP3A4) [%] | IC50 [2] [nM] | other results |
| --- | --- | --- | --- | --- |
| COc1cc2c(cn1)OCC21C(=O)N(CC2CCCCO2)c2ccccc21 (stereo unspecified) | 67 (≈ 183 µM) | 22 | 100 | – |
| Cc1cc2c(cc1C)C1(CO2)C(=O)N(Cc2ccccn2)c2ccccc21 (stereo unspecified) | 6 (≈ 16.8 µM) | 43 | 230 | – |
| COc1cc2c(cn1)OCC21C(=O)N(Cc2ccc(C(F)(F)F)o2)c2ccccc21 (stereo unspecified) | < 5 | 74 | 4 | – |
| COc1ccc2c(n1)C1(CO2)C(=O)N(Cc2ccc(Cl)s2)c2ccccc21 (stereo unspecified) | < 5 | 73 | 60 | – |
| CCCCCN1C(=O)C2(COc3cc(F)c(F)cc32)c2ccccc21 (stereo unspecified) | < 5 | 50 | 240 | – |
| COCCOc1ccc2c(c1)OCC21C(=O)N(Cc2ccccn2)c2ccccc21 (stereo unspecified) | 46 (≈ 114 µM) | 22 | 150 | – |
| COc1ccc2c(n1)C1(CO2)C(=O)N(Cc2csc(C(C)C)n2)c2ccccc21 (stereo unspecified) | 5 (≈ 12.3 µM) | 70 | 60 | – |
| CCCCCN1C(=O)C2(COc3cc4c(cc32)OCO4)c2ccccc21 (stereo unspecified) | – | 97 | – | – |
| CCCCCN1C(=O)C2(COc3cc(OC)ccc32)c2ccccc21 (stereo unspecified) | < 5 | 64 | 60 | – |
| COc1ccc2c(n1)C1(CO2)C(=O)N(Cc2ccc(C(F)(F)F)o2)c2ccccc21 (stereo unspecified) | < 5 | 26 | 130 | IC50 (Cytochrome P450 3A4): > 10000 nM; Activity (Rattus norvegicus [6]): 59%; viability at 16 h [7]: > 96%; remaining at 2 h [8]: 18%; inhibition at 3 h, 10 µM (hERG (KCNH2)): 7.5%; Cmax [9]: 884 ng/mL; bioavailability [10]: 3.2%; Cmax [11]: 12.7 ng/mL; AUC(0-t) [12]: 244 ng·h/mL; remaining at 2 h [13]: 49%; half-life [14]: 1.9 h; fraction unbound [15]: 0.05; AUC(0-t) [16]: 77.1 ng·h/mL; remaining at 2 h [17]: 29%; Tmax [18]: 4 h; Vd [19]: 4.1 L/kg; Papp A→B [20]: 9.1 ×10⁻⁶ cm/s; clearance [21]: 66.7 mL/min/kg; Papp B→A [22]: 8.8 ×10⁻⁶ cm/s |
| COc1ccc2c(c1)OCC21C(=O)N(CC2CCCCO2)c2ccccc21 (stereo unspecified) | 14 (≈ 38.3 µM) | 35 | 10 | – |
| COc1cc2c(cc1C)C1(CO2)C(=O)N(Cc2ccccn2)c2ccccc21 (stereo unspecified) | 7 (≈ 18.8 µM) | 61 | 1150 | – |

Continued, in another order:

| solubility [1] [µg/mL] | inhibition at 10 µM (CYP3A4) [%] | IC50 [2] [nM] | SMILES | other results |
| --- | --- | --- | --- | --- |
| 13 (≈ 35.7 µM) | 30 | 270 | O=C1N(Cc2ccccn2)c2ccccc2C12COc1cc(F)c(F)cc12 (stereo unspecified) | – |
| 52 (≈ 194 µM) | 13 | 350 | COc1cc2c(cn1)OCC21C(=O)Nc2ccccc21 (stereo unspecified) | – |
| 52 (≈ 194 µM) | 27 | > 1000 | COc1ccc2c(n1)C1(CO2)C(=O)Nc2ccccc21 (stereo unspecified) | – |
| < 5 | 42 | 180 | COc1ccc2c(n1)C1(CO2)C(=O)N(Cc2ccccn2)c2ccccc21 (stereo unspecified) | – |
| < 5 | 69 | 430 | COc1cc2c(cc1F)C1(CO2)C(=O)N(Cc2ccc(C(F)(F)F)o2)c2ccccc21 (stereo unspecified) | – |
| 8 (≈ 18.7 µM) | 75 | 700 | COc1cc2c(cc1OC)C1(CO2)C(=O)N(Cc2ccc(Cl)s2)c2ccccc21 (stereo unspecified) | – |
| 25 (≈ 69.8 µM) | 29 | 8 | COc1ccc2c(c1)OCC21C(=O)N(Cc2ccccn2)c2ccccc21 (stereo unspecified) | – |
| 61 (≈ 173 µM) | 22 | 20 | COc1cc2c(cn1)OCC21C(=O)N(C[C@@H]2CCCO2)c2ccccc21 (stereo partly specified) | remaining at 0.5 h [3]: 8%; Activity (Rattus norvegicus [4]): inactive; Activity (Rattus norvegicus [5]): inactive |
| 5 (≈ 12 µM) | 63 | 30 | COc1ccc2c(n1)C1(CO2)C(=O)N(Cc2ccc3c(c2)OCCO3)c2ccccc21 (stereo unspecified) | – |
| < 5 | 10 | > 1000 | N#Cc1cc2c(cc1F)OCC21C(=O)N(Cc2ncccc2C(F)(F)F)c2ccccc21 (stereo unspecified) | – |
| < 5 | 14 | 50 | COc1cc2c(cn1)OCC21C(=O)N(C[C@H]2CCCO2)c2ccccc21 (stereo partly specified) | – |
| 45 (≈ 128 µM) | 18 | 110 | COc1ccc2c(c1)OCC21C(=O)N(C[C@H]2CCCO2)c2ccccc21 (stereo partly specified) | – |
| 36 (≈ 95.6 µM) | 16 | 470 | COc1cc2c(cc1F)OCC21C(=O)N(Cc2ccccn2)c2ccccc21 (stereo unspecified) | – |
| 15 (≈ 39.9 µM) | 36 | 190 | COc1cc2c(cc1F)C1(CO2)C(=O)N(Cc2ccccn2)c2ccccc21 (stereo unspecified) | – |
| < 5 | 49 | > 250 | COc1ccc2c(n1)C1(CO2)C(=O)N(Cc2ncccc2C(F)(F)F)c2ccccc21 (stereo unspecified) | – |
